Legend:
Format in all cases: biochemical
uPA = molecular target: T1, uPA (Homo sapiens, UniProt P00749); assay: Kinetic progress curves (kapp, mechanism); conditions: for uPA kapp: apparent second-order rate constant from progress curves, mean ± SD; for uPA mechanism of inhibition: defined by the progress curves: slow-binding (Rev.) or irreversible (Irrev.)
T1 construct: purchased HYPHEN BioMed
Description: (§1) Because the compounds described in this paper were previously described as irreversible inhibitors, the IC50 value is inversely correlated with the second-order rate constant of inactivation. For a simple pseudo-first-order inactivation process, the activity after incubation with inhibitor (vi) varies with the inhibitor concentration (i), as described in the following equation: vi=v0·e^−kit where v0 is the activity in the absence of an inhibitor, k is the second-order rate constant of inactivation, and t is the time. The inactivation rate constant was determined from the time course of inhibition.
(§2) Kinetic assays were performed in the following manner. The inhibitor was mixed with the substrate, and the buffer solution with the enzyme was added at the time zero. The progress curves show the release of pNA or AMC as a function of time. Initially, no inhibitor is bound to the enzyme, and the tangent to the progress curve (dA/dt) is proportional to the free enzyme concentration. The free enzyme concentration decreases over time due to inhibitor binding kinetics, as described above. Progress curves were recorded in pseudo-first-order conditions ([I]0>>[E]0) and with less than 10% conversion of the substrate during the entire time course. In these conditions, dA/dt decreases exponentially with time. The progress curves were fitted with the integrated rate equation with GraFit7 to yield a value for kobs, a pseudo-first-order rate constant. At=Ao+vs∙t+vi−vs∙1−e^−kobs∙t/kobs where At is the absorbance at time t, A0 is the absorbance at time zero, vi is the initial rate and vs is the velocity at the steady-state.
(§3) The apparent second-order rate constant (kapp) was calculated from the slope of the linear part of the plot of kobs vs. the inhibitor concentration ([I]0). In the case of competition between the inhibitor and the substrate, kapp is smaller than the “real” second-order rate constant k discussed above because a certain fraction of the enzyme is present as an enzyme-substrate complex. kapp depends on the substrate concentration used in the experiment, as described by [Lambeir et al. (1996)].
(§4) The apparent equilibrium constants were obtained from the following equations, vi/vo=1/1+I/K1; vS/vo=1/1+I/KI* where vi is the initial rate, vs is the steady-state velocity and vo is the uninhibited initial rate.

β-tryptase = β-tryptase (Homo sapiens, UniProt P20231); assay: Kinetic progress curves (kapp, K1, KI*, mechanism); set-up: purchased EnzoLife Sciences; conditions: for β-tryptase kapp: apparent second-order rate constant from progress curves, mean ± SD; for β-tryptase mechanism of inhibition: defined by the progress curves: slow-binding (Rev.) or irreversible (Irrev.)
Description: as §1, §2, §3, §4

Trypsin-3 = molecular target: T2, Trypsin-3 (Homo sapiens, UniProt P35030); assay: Kinetic progress curves (kapp, K1, KI*, mechanism); set-up: purchased R&D; conditions: for Trypsin-3 kapp: apparent second-order rate constant from progress curves, mean ± SD; for Trypsin-3 mechanism of inhibition: defined by the progress curves: slow-binding (Rev.) or irreversible (Irrev.)
T2 sequence (P35030 1-304): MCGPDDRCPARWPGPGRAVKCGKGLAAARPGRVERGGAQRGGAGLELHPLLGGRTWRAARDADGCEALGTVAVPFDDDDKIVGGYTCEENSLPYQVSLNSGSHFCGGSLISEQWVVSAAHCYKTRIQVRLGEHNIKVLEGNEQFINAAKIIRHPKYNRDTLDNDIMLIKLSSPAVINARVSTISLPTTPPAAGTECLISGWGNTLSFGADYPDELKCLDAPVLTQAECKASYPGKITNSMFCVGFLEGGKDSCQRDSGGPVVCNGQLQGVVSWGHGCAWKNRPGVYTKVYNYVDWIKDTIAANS
Description: as §1, §2, §3, §4

Sequence of β-tryptase (P20231 31-275): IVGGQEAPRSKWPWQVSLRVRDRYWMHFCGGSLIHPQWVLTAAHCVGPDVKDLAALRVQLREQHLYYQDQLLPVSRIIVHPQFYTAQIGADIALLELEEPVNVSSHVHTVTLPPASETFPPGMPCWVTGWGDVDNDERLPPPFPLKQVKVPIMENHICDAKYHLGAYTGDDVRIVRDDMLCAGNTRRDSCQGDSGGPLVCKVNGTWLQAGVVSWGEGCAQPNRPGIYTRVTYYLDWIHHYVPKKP

Compound | uPA kapp (uPA) [M⁻¹ s⁻¹] | uPA mechanism of inhibition (uPA) | β-tryptase kapp (β-tryptase) | β-tryptase mechanism of inhibition (β-tryptase) | Trypsin-3 kapp (Trypsin-3) [M⁻¹ s⁻¹] | Trypsin-3 mechanism of inhibition (Trypsin-3)
C#CCCCOC(=O)NC(c1ccc(NC(=N)N)cc1)P(=O)(Oc1ccc(NC(C)=O)cc1)Oc1ccc(NC(C)=O)cc1 (stereo not drawn) [38b, Pent-4-yn-1-yl ((bis(4-acetamidophenoxy)phosphoryl)(4-guanidinophenyl)methyl) carbamate] | 215 ± 7 | Irrev. | 20 × 10^2 ± 54 M^−1 s^−1 | Irrev. | 358 ± 6 | Irrev.
C[C@@H]1NC(=O)N[C@@H]1CCCCCC(=O)NCCOCCOCCOCCn1cc(CCCOC(=O)NC(c2ccc(NC(=N)N)cc2)P(=O)(Oc2ccccc2)Oc2ccccc2)nn1 (stereo partly drawn) [55b] | 77 ± 1 | Irrev. | 347 ± 19 M⁻¹ s⁻¹ | Irrev. | 231 ± 18 | Irrev.

Source: article PMC9849758, “Chemically diverse activity-based probes with unexpected inhibitory mechanisms targeting trypsin-like serine proteases” (Frontiers in Chemistry, 2023)
